From PMC7044277 (Nature Communications, 2020)
Where “and” joins values, the source holds several entries; their conditions need not be identical. Equal values may be shown once.

Legend:
Format in all cases: cell-based
[1] = molecular target: T1, 320 non-olfactory GPCRs (Homo sapiens, UniProt Q9NS75)
T1 construct: expressed in transfected cells; host or cells: HTLA cells

[2] = molecular target: T2, 320 non-olfactory GPCRs (Homo sapiens, UniProt P50391); conditions: receptor NPY4R; replicate values, Fig_4g
T2 construct: expressed in transfected cells; host or cells: HTLA cells

[3] = molecular target: 320 non-olfactory GPCRs (Homo sapiens, UniProt P32238)
[4] = molecular target: T3, 320 non-olfactory GPCRs (Homo sapiens, UniProt Q86VZ1); conditions: receptor P2RY8; replicate values, Fig_4g
T3 construct: expressed in transfected cells; host or cells: HTLA cells
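Wherever Fold of Basal is given: compound tested at 1 µM final concentration.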
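Wherever GPCRome agonism screen response is given: fold over basal response of each receptor without drug.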

T2 sequence (P50391 whole entry): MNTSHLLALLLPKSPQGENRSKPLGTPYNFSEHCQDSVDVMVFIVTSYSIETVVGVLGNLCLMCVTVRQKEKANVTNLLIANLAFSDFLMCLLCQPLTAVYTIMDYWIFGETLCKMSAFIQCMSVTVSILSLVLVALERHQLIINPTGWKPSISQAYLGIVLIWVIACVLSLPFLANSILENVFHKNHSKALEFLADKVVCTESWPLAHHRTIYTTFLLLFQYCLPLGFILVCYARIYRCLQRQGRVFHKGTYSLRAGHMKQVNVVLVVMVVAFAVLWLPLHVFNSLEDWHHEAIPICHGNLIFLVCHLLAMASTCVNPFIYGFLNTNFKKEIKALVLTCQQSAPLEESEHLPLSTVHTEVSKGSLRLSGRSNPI
Chain of 320 non-olfactory GPCRs (Homo sapiens, UniProt P32238) (P32238 whole entry): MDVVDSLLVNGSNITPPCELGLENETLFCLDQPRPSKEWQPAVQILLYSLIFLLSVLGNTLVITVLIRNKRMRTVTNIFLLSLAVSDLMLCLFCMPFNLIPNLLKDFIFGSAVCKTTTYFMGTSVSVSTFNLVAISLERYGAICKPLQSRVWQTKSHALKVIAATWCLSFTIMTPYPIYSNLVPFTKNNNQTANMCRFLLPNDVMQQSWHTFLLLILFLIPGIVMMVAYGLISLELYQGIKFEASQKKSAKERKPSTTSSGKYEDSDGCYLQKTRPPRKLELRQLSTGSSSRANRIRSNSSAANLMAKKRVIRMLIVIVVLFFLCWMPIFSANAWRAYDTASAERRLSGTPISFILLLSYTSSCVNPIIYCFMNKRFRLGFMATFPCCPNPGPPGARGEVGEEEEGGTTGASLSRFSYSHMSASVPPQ
T1 sequence (Q9NS75 whole entry): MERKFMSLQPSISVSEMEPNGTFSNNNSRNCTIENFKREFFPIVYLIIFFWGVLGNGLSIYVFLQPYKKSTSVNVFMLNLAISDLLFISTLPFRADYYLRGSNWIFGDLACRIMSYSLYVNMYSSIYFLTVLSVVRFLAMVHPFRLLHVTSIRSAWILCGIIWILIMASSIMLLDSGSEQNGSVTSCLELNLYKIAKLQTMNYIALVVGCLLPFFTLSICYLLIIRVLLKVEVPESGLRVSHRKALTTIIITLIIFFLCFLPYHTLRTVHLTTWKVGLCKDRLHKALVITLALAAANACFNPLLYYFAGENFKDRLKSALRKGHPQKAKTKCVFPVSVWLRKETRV
T3 sequence (Q86VZ1 whole entry): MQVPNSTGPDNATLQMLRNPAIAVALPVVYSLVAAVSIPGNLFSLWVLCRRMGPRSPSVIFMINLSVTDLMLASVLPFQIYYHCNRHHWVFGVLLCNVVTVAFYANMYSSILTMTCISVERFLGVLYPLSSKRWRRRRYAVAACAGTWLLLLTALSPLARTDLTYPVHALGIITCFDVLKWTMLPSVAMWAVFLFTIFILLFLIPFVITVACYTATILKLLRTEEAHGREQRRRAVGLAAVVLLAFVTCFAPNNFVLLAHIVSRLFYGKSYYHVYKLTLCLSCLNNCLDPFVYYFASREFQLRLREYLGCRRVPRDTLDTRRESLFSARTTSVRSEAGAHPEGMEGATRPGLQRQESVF

With `CCOc1cccc2cc(C(C)NCC3(O)CCCCC3)oc12` (stereo not shown) [O4LE6] the “Fold of Basal” value [1] was 2.056 and 1.771 and 2.16 and 1.536, the “GPCRome agonism screen response” value [2] was 0.9177 and 0.7118 and 1.258 and 0.6362 and the “Fold of Basal” value [3] was 0.8879 and 0.8535 and 0.8133 and 1.029. For the same compound, the “GPCRome agonism screen response” value [4] was 0.862 and 0.8339 and 1.83 and 1.383.
